US8338597B2, “Pyridones useful as inhibitors of kinases” (Vertex Pharmaceuticals Incorporated, priority 2004, dated 2012)
pKi: −log10 of the molar value. Values joined by “and” are separate entries in the source; they are usually repeats but may differ in a detail not shown here. Equal values may be shown once.

What was measured:
Format in all cases: biochemical
Itk = molecular target: T1, Itk (Homo sapiens, UniProt Q08881); assay: ITK inhibition assay, radioactive-phosphate incorporation; details: [γ-33P]ATP, SAM68 peptide, 25° C.
T1 sequence (Q08881 1-620): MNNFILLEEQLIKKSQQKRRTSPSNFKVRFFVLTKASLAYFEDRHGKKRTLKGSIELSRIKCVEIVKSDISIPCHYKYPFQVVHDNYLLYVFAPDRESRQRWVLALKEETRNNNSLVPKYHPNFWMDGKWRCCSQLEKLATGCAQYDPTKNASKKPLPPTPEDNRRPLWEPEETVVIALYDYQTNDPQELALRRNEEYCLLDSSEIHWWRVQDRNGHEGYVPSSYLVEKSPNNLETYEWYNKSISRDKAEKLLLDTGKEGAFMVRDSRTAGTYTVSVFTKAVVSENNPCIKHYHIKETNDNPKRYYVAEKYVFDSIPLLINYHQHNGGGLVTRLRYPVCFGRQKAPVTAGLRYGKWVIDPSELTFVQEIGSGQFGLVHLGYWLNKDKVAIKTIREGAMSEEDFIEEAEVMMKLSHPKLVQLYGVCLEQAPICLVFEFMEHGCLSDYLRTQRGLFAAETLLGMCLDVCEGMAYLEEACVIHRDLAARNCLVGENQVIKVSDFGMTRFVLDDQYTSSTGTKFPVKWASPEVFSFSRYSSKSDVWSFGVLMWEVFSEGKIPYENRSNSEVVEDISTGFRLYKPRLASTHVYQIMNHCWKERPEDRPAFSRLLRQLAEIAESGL

Btk = Btk (Homo sapiens, UniProt Q06187); assay: BTK inhibition assay, radioactive-phosphate incorporation; details: 50 μM [γ-33P]ATP, 25 nM Btk, 25° C.
Chain of Btk (Q06187 whole entry, species assumed): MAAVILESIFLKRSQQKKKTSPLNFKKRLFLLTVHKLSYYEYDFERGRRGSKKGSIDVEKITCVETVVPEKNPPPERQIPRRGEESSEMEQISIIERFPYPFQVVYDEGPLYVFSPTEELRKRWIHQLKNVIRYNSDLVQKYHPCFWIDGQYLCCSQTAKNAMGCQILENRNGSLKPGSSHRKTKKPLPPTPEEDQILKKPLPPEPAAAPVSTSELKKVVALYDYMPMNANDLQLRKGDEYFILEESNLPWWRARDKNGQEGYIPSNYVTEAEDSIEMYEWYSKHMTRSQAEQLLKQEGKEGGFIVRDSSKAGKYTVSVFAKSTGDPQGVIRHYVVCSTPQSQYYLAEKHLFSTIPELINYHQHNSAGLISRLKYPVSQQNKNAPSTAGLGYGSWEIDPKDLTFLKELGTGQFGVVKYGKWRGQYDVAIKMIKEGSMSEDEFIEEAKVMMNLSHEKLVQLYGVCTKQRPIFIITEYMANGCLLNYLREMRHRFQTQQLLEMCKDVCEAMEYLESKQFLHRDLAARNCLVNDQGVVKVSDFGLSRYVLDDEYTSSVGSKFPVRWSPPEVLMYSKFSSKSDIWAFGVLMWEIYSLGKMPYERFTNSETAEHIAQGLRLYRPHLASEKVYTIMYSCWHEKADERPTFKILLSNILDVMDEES
Procedure: Compounds were screened for their ability to inhibit Btk using a radioactive-phosphate incorporation assay at Vertex Pharmaceuticals. Assays were carried out in a mixture of 20 mM MOPS (pH 7.0), 10 mM MgCl2, 0.1% BSA and 1 mM DTT. Final substrate concentrations in the assay were 50 μM [γ-33P]ATP (200mCi 33P ATP/mmol ATP, Amersham Pharmacia Biotech, Amersham, UK/Sigma Chemicals) and 2 μM peptide (SAM68 D332-443). Assays were carried out at 25° C. and in the presence of 25 nM Btk. An assay stock buffer solution was prepared containing all of the reagents listed above, with the exception of the peptide and the test compound of interest. 75 μL of the stock solution was placed in a 96 well plate followed by addition of 2 μL of DMSO stock containing serial dilutions of the test compound (typically starting from a final concentration of 15 μM) in duplicate (final DMSO concentration 2%). The plate was preincubated for 15 minutes at 25° C. and the reaction initiated by addition of 25 μL peptide (final concentration 2 μM). Background counts were determined by the addition of […] 0.2M phosphoric acid+0.01% TWEEN to control wells containing assay stock buffer and DMSO prior to initiation with peptide.
The reaction was stopped after 10 minutes by the addition of […] 0.2M phosphoric acid+0.01% TWEEN. A multiscreen phosphocellulose filter 96-well plate (Millipore, Cat no. MAPHN0B50) was pretreated with 100 μL 0.2M phosphoric acid+0.01% TWEEN 20 prior to the addition of […] of the stopped assay mixture. The plate was washed with 4×200 μL 0.2M phosphoric acid+0.01% TWEEN 20. After drying, 30 μL Optiphase ‘SuperMix’ liquid scintillation cocktail (Perkin Elmer) was added to the well prior to scintillation counting (1450 Microbeta Liquid Scintillation Counter, Wallac).
After removing mean background values for all of the data points, Ki(app) data were calculated from non-linear regression analysis using the Prism software package (GraphPad Prism version 3.0cx for Macintosh, GraphPad Software, San Diego Calif., USA).

Rlk = molecular target: T2, Rlk (Homo sapiens, UniProt P42681); assay: RLK inhibition assay, standard coupled enzyme assay; details: 100 μM ATP, 40 nM Rlk, 30° C.
T2 sequence (P42681 1-527): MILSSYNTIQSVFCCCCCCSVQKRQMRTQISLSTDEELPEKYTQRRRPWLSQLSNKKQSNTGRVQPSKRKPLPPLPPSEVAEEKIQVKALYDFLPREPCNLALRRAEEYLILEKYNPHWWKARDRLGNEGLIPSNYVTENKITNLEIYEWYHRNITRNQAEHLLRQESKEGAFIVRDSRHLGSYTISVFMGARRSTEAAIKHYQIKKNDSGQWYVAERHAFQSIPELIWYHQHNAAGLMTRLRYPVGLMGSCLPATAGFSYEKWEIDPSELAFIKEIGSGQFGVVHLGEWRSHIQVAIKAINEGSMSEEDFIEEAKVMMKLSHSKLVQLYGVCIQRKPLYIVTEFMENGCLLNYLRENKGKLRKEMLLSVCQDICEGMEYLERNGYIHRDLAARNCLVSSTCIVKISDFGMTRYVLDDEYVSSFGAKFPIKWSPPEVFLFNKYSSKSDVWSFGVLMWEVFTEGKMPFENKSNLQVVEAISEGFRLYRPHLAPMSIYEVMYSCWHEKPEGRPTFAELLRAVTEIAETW
Procedure: Compounds were screened for their ability to inhibit Rlk using a standard coupled enzyme assay (Fox et al., Protein Sci., (1998) 7, 2249). Assays were carried out in a mixture of 20 mM MOPS (pH 7.0), 10 mM MgCl2, 0.1% BSA and 1 mM DTT. Final substrate concentrations in the assay were 100 μM ATP (Sigma Chemicals) and 10 μM peptide (Poly Glu:Tyr 4:1). Assays were carried out at 30° C. and in the presence of 40 nM Rlk. Final concentrations of the components of the coupled enzyme system were 2.5 mM phosphoenolpyruvate, 300 μM NADH, 30 μg/ml pyruvate kinase and 10 μg/ml lactate dehydrogenase.
An assay stock buffer solution was prepared containing all of the reagents listed above, with the exception of ATP and the test compound of interest. 60 μl of the stock solution was placed in a 96 well plate followed by addition of […] of DMSO stock containing serial dilutions of the test compound (typically starting from a final concentration of 7.5 μM). The plate was preincubated for 10 minutes at 30° C. and the reaction initiated by addition of 5 μl of ATP. Initial reaction rates were determined with a Molecular Devices SpectraMax Plus plate reader over a 10 minute time course. IC50 and Ki data were calculated from non-linear regression analysis using the Prism software package (GraphPad Prism version 3.0cx for Macintosh, GraphPad Software, San Diego Calif., USA).

CNc1nccc(-c2c[nH]c(=O)c(NC(=O)c3ccc(N4CCNCC4)cc3)c2)n1 [II-77]
pKi (Itk): > 7.00 | pKi (Btk): > 6.30 | pKi (Rlk): > 6.00

CC(C)(N)CNc1cccc(-c2c[nH]c(=O)c(NC(=O)c3ccc(N4CCCCC4)cc3)c2)n1 [II-112]
pKi (Itk): > 7.00 | pKi (Btk): > 6.30 | pKi (Rlk): > 6.00

CNc1nccc(-c2c[nH]c(=O)c(NC(=O)c3ccc(N4CCC[C@H]4CN4CCCC4)cc3)c2)n1 [II-80]
pKi (Itk): > 7.00 | pKi (Btk): > 6.30 | pKi (Rlk): > 6.00

CNc1nccc(-c2c[nH]c(=O)c(NC(=O)c3ccc(N4CCN(C(C)C)CC4)cc3)c2)n1 [II-78]
pKi (Itk): > 7.00 | pKi (Btk): > 6.30 | pKi (Rlk): > 6.00

CNc1cncc(-c2c[nH]c(=O)c(NC(=O)c3ccc(N4CCCCC4)cc3)c2)n1 [II-114]
pKi (Btk): < 6.30 | pKi (Rlk): < 6.00

CNCCNc1cccc(-c2c[nH]c(=O)c(NC(=O)c3ccc(N4CCCCC4)cc3)c2)n1 [II-51]
pKi (Itk): > 7.00 | pKi (Btk): > 6.30

CN(C)CCN(C)c1nccc(-c2c[nH]c(=O)c(NC(=O)c3ccc(N4CCCCC4)cc3)c2)n1 [II-61]
pKi (Itk): 6.00 to 7.00 | pKi (Btk): < 6.30 and > 6.30

CC(O)[C@@H](CO)Nc1cccc(-c2c[nH]c(=O)c(NC(=O)c3ccc(N4CCCCC4)cc3)c2)n1 (some centres unmarked) [II-149]
pKi (Itk): 6.00 to 7.00 | pKi (Btk): < 6.30 | pKi (Rlk): < 6.00

CNCCNc1nccc(-c2c[nH]c(=O)c(NC(=O)c3ccc(N4CCCCC4)cc3)c2)n1 [II-63]
pKi (Itk): > 7.00 | pKi (Btk): > 6.30
